Test results published in publication PMC2116235 (The Journal of Cell Biology, 1990).

Columns and labels:
[1] = molecular target: intact type IV collagen (EHS tumor) (mouse (endogenous in the EHS tumor)); experiment: rotary shadowing electron microscopy
[2] = system: adhesion of bovine aortic endothelial cells to type IV collagen; format: cell-based; conditions: type IV collagen 1-60 µg/ml; glycosaminoglycan up to 10 mg/ml; 60 min at 37C
[3] = system: bovine aortic endothelial cells; experiment: Cell spreading assay; format: cell-based; conditions: 37C
[4] = system: bovine aortic endothelial cells; experiment: Direct solid phase cell-binding; format: cell-based; conditions: 35S-labeled cells, 37C, 30-60 min
[5] = system: bovine aortic endothelial cells; conditions: as compared to fibronectin or laminin; cited from earlier work
[6] = cited from earlier work
type IV collagen [7] = molecular target: T1, type IV collagen (Mus musculus, UniProt P02463+P08122); experiment: Solid phase binding of 125I-peptides to type IV collagen; parameters: species or system murine (EHS tumor); conditions: 37C, 2 h; for Competition of bound 125I-peptide by unlabeled corresponding peptide: 5 µg 125I-peptide, unlabeled peptide up to 400-fold excess (2 mg/ml)
T1 sequence (P02463 173-1669): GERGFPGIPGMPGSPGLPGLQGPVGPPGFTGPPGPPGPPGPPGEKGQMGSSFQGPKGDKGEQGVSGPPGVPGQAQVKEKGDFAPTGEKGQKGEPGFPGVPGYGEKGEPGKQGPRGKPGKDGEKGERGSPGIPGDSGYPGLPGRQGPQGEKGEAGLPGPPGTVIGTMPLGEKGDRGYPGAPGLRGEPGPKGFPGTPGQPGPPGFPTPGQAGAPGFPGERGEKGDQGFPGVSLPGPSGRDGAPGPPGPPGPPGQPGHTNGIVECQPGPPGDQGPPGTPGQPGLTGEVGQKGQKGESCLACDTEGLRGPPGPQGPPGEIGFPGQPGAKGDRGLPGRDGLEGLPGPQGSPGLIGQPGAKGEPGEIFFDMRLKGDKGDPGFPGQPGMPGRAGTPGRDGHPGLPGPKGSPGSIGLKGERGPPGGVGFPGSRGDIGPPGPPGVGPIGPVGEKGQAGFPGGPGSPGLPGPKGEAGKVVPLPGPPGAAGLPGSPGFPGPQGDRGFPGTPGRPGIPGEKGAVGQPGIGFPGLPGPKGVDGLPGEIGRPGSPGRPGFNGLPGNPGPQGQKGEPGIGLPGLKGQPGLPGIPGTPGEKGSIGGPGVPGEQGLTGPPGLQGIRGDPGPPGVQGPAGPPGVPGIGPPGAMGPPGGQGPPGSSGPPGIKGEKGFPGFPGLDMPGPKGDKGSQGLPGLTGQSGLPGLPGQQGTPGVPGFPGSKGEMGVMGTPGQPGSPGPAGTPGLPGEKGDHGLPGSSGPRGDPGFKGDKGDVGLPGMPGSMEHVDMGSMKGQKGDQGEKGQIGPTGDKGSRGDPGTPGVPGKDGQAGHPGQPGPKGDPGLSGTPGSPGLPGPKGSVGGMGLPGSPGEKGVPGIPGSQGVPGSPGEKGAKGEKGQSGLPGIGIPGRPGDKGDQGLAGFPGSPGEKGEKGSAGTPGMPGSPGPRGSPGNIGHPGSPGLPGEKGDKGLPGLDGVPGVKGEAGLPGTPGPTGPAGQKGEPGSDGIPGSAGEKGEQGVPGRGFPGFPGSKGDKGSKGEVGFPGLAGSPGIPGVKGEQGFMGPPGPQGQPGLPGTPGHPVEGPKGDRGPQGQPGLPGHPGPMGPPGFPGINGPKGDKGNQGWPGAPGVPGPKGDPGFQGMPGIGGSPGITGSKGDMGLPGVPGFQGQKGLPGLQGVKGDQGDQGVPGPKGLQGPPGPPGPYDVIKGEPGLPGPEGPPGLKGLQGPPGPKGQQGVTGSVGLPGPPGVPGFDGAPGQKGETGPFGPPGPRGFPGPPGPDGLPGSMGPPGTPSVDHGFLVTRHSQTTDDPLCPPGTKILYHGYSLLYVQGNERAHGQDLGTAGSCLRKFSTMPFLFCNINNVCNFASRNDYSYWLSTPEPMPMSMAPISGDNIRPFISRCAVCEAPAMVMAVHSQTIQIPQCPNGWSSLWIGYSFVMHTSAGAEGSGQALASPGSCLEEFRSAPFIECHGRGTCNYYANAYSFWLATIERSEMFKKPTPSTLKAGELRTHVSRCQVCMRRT
T1 sequence (P08122 29-1707 limits assumed): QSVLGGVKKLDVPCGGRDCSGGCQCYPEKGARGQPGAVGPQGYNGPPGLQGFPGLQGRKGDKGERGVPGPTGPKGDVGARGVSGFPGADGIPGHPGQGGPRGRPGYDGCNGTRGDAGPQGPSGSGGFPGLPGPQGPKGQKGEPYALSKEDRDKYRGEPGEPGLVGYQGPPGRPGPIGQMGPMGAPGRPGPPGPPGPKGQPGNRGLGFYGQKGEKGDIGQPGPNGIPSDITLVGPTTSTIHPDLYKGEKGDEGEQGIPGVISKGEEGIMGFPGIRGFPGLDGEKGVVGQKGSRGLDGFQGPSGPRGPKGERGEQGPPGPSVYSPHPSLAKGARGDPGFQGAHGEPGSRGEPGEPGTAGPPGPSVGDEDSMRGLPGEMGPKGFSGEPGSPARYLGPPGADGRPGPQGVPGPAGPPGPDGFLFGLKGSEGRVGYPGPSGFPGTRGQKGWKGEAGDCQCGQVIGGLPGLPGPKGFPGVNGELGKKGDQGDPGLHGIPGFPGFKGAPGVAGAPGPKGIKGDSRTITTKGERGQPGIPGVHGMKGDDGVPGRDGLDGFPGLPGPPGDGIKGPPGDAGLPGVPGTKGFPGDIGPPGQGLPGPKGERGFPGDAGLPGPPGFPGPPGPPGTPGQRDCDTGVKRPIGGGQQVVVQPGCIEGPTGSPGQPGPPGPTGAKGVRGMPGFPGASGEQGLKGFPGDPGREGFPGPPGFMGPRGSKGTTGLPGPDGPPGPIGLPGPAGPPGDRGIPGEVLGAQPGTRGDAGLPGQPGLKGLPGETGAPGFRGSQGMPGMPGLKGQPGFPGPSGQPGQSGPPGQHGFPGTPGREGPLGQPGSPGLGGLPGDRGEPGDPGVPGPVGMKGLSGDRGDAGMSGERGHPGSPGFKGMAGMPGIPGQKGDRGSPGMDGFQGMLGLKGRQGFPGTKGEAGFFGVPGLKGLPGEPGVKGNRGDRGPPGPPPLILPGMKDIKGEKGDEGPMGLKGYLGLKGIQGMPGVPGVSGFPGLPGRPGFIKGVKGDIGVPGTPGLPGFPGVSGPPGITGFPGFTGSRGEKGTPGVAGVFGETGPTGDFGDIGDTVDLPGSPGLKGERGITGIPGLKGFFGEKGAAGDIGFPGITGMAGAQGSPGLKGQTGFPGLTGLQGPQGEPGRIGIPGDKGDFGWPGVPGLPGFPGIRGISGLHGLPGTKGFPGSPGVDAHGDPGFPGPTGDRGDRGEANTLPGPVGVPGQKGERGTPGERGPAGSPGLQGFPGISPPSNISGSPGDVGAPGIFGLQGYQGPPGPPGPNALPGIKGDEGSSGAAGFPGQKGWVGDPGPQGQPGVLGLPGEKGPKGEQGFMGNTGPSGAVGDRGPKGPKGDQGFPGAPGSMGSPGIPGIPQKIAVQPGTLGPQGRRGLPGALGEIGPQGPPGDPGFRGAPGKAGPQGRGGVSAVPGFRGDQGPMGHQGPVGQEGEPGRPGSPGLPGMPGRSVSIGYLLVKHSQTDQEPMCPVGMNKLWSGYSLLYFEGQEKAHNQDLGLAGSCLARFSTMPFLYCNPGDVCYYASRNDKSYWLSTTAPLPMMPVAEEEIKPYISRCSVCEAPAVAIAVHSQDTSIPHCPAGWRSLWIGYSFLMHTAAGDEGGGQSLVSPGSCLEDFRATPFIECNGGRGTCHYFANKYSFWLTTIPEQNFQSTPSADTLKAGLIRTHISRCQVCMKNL

type IV collagen [8] = conditions: cited from earlier work
[9] = system: bovine aortic endothelial cells; experiment: Binding of 125I-Hep-I to endothelial cells in solution, direct and competition; conditions: 5 µg 125I-Hep-I; unlabeled peptide up to 400-fold excess, 4C, 20 min
[10] = system: adhesion of bovine aortic endothelial cells to NC1 domain; experiment: Competition of endothelial cell binding to NC1 domain by peptides; format: cell-based
[11] = system: microvascular endothelial cells; experiment: Adhesion of microvascular endothelial cells; format: cell-based; conditions: preliminary observations
murine melanoma cells = experiment: Adhesion of murine melanoma cells; format: cell-based; conditions: preliminary observations
BSA = experiment: Nonspecific binding of peptide to BSA-coated plastic; conditions: BSA coated onto plastic; all concentrations used; data not shown
[12] = system: adhesion of bovine aortic endothelial cells to type IV collagen; experiment: Competition of endothelial cell binding to type IV collagen by peptides; format: cell-based; conditions: ~5 µg (100 µg/ml) peptide; type IV collagen coated at 10 µg/ml; 60 min at 37C
type IV collagen [13] = molecular target: T1, type IV collagen; experiment: Turbidity of type IV collagen assembly; format: biochemical, murine (EHS tumor); conditions: peptide 100 µg/ml with type IV collagen-NC1 domain mixtures, 37C, 360 nm
[14] = 30 min, substrate type IV collagen 10 µg/ml or peptide Hep-I 20 µg/ml

intact type IV collagen (EHS tumor) (complex)
percent of the total type IV collagen in the lattice [1]: 74%

heparin
Effect on endothelial cell binding to type IV collagen [2]: unaffected

type IV collagen: type IV collagen isolated from the EHS tumor, a murine tumor
Spread cells, of attached endothelial cells [3, 14]: ~ 92.8% | Adhesion of added endothelial cells ([4]; coated at 0.05 µg/well, ~5,000/well): ~ 20% | Adhesion of added endothelial cells ([4]; coated at 5 µg/well): ~ 40% | Preferential adhesion of aortic endothelial cells [5]: preferably adhered | Binding to heparin [6]: specifically bound heparin

TAGSCLRKFSTM [peptide Hep-I]
Competition of bound 125I-peptide by unlabeled corresponding peptide (type IV collagen [7]): efficient competition | Inhibition of the binding of heparin to type IV collagen (type IV collagen [8]): dose-dependent manner | Competition for binding of 125I-Hep-I to endothelial cells [9]: efficiently competed | Spread cells, of attached endothelial cells [3, 14]: ~ 60% | Spread cells, of attached endothelial cells ([3]; 60 min, peptide Hep-I substrate 20 µg/ml): 83% | Spread cells, of attached endothelial cells ([3]; 90 min, peptide Hep-I substrate 20 µg/ml): 84% | Endothelial cell adhesion to NC1 domain ([10]; 1 µg (20 µg/ml) peptide, NC1 coated 20 µg/ml, 100% = no inhibitor, 60 min at 37C): ≤ 20% | Inhibition of cell adhesion on NC1 domain substrates ([10]; substrates coated with NC1 domain (Discussion)): ~ 80% | Adhesion of microvascular endothelial cells [11]: also adhered | Adhesion of murine melanoma cells (murine melanoma cells): also adhered | Nonspecific binding of the peptide to BSA, of total binding to type IV collagen (BSA): < 2% | Binding to heparin [6]: specifically bound heparin | Maximal inhibition of adhesion to type IV collagen [12]: ~ 50%

MFKKPTPSTLKAGELR [peptide 4]
Additive effect on maximal turbidity (type IV collagen [13]): did not have any additive effect

GDSRTITTKGERGQP [peptide ET-2]
Competition for binding of 125I-Hep-I to endothelial cells [9]: failed to compete

GRGDSP [reference compound]
Effect on endothelial cell adhesion to NC1 domain ([10]; up to 500 µg/ml inhibitor, NC1 coated 20 µg/ml, 60 min at 37C): did not have any effect

DPLCPPGTKIL [peptide 1]
Competition of bound 125I-peptide by unlabeled corresponding peptide (type IV collagen [7]): could not be competed | Nature of binding to type IV collagen (type IV collagen [7]; solid phase, 125I-peptide, pH 7.4): this binding should not be specific | Additive effect on maximal turbidity (type IV collagen [13]): did not have any additive effect

BSA: control coating protein [reference compound]
Adhesion of added endothelial cells in spreading experiment ([3]; BSA substrate 5 µg/ml, all time intervals (30-90 min)): 1.7-2.2%
